According to PMC5908784, “Extracellular loops 2 and 3 of the calcitonin receptor selectively modify agonist binding and efficacy” (Biochemical Pharmacology, 2018):
Positions count from the first letter of the chain named. pKi: −log10 of the molar value. Where a SMILES comes first, the peptide text is derived from it. Bridges are numbered along the chain shown (N, C = ends).

Tests used:
Assay in all cases: Heterologous whole cell competition binding
Details in all cases: heterologous competition of 125I-sCT(8-32), whole cells, mean ± S.E.M., SEM
hCTR WT = target: T1, hCTR WT (Homo sapiens, UniProt P30988)
T1 construct: expressed in transfected cells
T1 sequence (P30988 25-474): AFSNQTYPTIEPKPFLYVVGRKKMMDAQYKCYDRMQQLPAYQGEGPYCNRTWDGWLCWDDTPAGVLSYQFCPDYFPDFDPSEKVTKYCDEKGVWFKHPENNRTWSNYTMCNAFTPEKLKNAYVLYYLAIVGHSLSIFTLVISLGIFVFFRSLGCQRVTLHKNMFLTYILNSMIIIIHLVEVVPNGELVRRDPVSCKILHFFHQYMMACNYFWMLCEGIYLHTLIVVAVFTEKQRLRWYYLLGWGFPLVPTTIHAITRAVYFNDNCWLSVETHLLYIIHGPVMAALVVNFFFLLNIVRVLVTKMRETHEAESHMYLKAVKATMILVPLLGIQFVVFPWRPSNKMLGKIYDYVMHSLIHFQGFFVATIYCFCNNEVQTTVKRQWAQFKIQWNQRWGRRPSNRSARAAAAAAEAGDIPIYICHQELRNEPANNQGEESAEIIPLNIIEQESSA
How it was run: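 Gamma counter read-out of bound radioactivity after overnight incubation and removal of non-bound ligand. Affinities are given as pKi, derived with Cheng-Prusoff correction.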

hCTR E294A = target: T2, hCTR E294A (Homo sapiens, UniProt P30988, E294A)
T2 construct: c-Myc (N); expressed in transfected cells
T2 sequence (P30988 25-474 E294A): T1 sequence (P30988 25-474) with E270A
How it was run: (§1)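 Overnight competition on intact cells; free ligand washed off; gamma counting. pKi via Cheng-Prusoff correction for radioligand occupancy.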

hCTR N288A = target: T3, hCTR N288A (Homo sapiens, UniProt P30988, N288A)
T3 construct: expressed in transfected cells
T3 sequence (P30988 25-474 N288A): T1 sequence (P30988 25-474) with N264A
How it was run: as §1

hCTR V358A = target: T4, hCTR V358A (Homo sapiens, UniProt P30988, V358A)
T4 construct: c-Myc (N); expressed in transfected cells
T4 sequence (P30988 25-474 V358A): T1 sequence (P30988 25-474) with V334A
How it was run: as §1

hCTR S292A = target: T5, hCTR S292A (Homo sapiens, UniProt P30988, S292A)
T5 construct: expressed in transfected cells
T5 sequence (P30988 25-474 S292A): T1 sequence (P30988 25-474) with S268A
How it was run: as §1

Structure (SMILES): CSCC[C@H](NC(=O)CNC(=O)[C@H](CO)NC(=O)[C@H](Cc1ccccc1)NC(=O)[C@H](CCCNC(=N)N)NC(=O)[C@H](Cc1c[nH]cn1)NC(=O)[C@H](Cc1ccccc1)NC(=O)[C@H](CC(N)=O)NC(=O)[C@H](CC(N)=O)NC(=O)[C@H](CC(C)C)NC(=O)[C@H](CC(N)=O)NC(=O)[C@H](CCCNC(=N)N)NC(=O)[C@H](Cc1c[nH]c2ccccc12)NC(=O)[C@H](Cc1ccc(O)cc1)NC(=O)[C@H](C)NC(=O)[C@H](CO)NC(=O)[C@H](CC(C)C)NC(=O)[C@@H](NC(=O)[C@@H]1CSSC[C@H](N)C(=O)N[C@@H](CO)C(=O)N[C@@H](CC(N)=O)C(=O)N[C@@H](CC(C)C)C(=O)N[C@@H](CO)C(=O)N[C@@H]([C@@H](C)O)C(=O)N1)C(C)C)C(=O)NCC(=O)N[C@@H](Cc1ccccc1)C(=O)NCC(=O)N1CCC[C@H]1C(=O)N[C@@H](CCC(=O)O)C(=O)N[C@H](C(=O)N1CCC[C@H]1C(N)=O)[C@@H](C)O [pCT] (H-CSNLSTCVLSAYWRNLNNFHRFSGMGFGPETP-NH2; disulfide 1-7)
- pKi (hCTR WT): 8.27
- pKi (hCTR E294A): 7.93
- pKi (hCTR N288A): 8.03
- pKi (hCTR V358A): 7.84
- pKi (hCTR S292A): 8.54
